According to patent US10294202B2, “Pyrrolidinones as herbicides” (FMC Corporation, priority 2013, dated 2019):

Tests used:
[1] = tested on: nutsedge, yellow; assay: Test C pre-/postemergence herbicide test; assay type: in vivo, Cyperus esculentus
Method in brief: (§1)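 Compound solutions contained surfactant in a non-phytotoxic solvent. These were sprayed onto pots of loam/sand sown with seeds, and onto young plants (2 to 18 cm, 1- to 4-leaf) in sphagnum peat–vermiculite mix. Visual injury scores (0 none, 100 complete control) were recorded after 13 to 15 days.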

[2] = tested on: johnsongrass; assay: Test C pre-/postemergence herbicide test; assay type: in vivo, Sorghum halepense
Method in brief: as §1

[3] = tested on: velvetleaf; assay: Test C pre-/postemergence herbicide test; assay type: in vivo, Abutilon theophrasti
Method in brief: as §1

[4] = tested on: rice; assay: Test B flooded paddy test; assay type: in vivo, Oryza sativa; settings: 500 g ai/ha, Flood; scale of 0 to 100 where 0 is no effect and 100 is complete control
Method in brief: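 2-leaf plants; flood 3 cm over soil; compound into paddy water; depth held. Greenhouse 13–15 d. Visual rating vs controls, 0 (no effect) to 100 (complete control); dash = not tested.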

[5] = tested on: blackgrass; assay: Test C pre-/postemergence herbicide test; assay type: in vivo, Alopecurus myosuroides
Method in brief: as §1

[6] = tested on: pigweed; assay: Test A pre-/postemergence herbicide test; assay type: in vivo, Amaranthus retroflexus
Method in brief: (§2)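 Formulated compound (non-phytotoxic solvent, surfactant) sprayed pre- onto soil of seeded loam/sand pots or post- onto seedlings at 1–2 leaves; ~10 d greenhouse; 0–100 visual control rating versus untreated.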

[7] = tested on: oilseed rape; assay: Test C pre-/postemergence herbicide test; assay type: in vivo, Brassica napus
Method in brief: as §1

[8] = tested on: foxtail, giant; assay: Test C pre-/postemergence herbicide test; assay type: in vivo, Setaria faberii
Method in brief: as §1

[9] = tested on: barnyardgrass; assay: Test A pre-/postemergence herbicide test; assay type: in vivo, Echinochloa crus-galli
Method in brief: as §2

[10] = tested on: giant foxtail; assay: Test A pre-/postemergence herbicide test; assay type: in vivo, Setaria faberii
Method in brief: as §2

[11] = tested on: corn; assay: Test A pre-/postemergence herbicide test; assay type: in vivo, Zea mays; settings: Postemergence
Method in brief: as §2

[12] = Postemergence, 31 g ai/ha, scale 0 to 100 (0 no effect, 100 complete control)
[13] = Postemergence, 62 g ai/ha, scale 0 (no effect) to 100 (complete control)
[14] = Postemergence, 125 g ai/ha, scale 0 to 100 (0 no effect, 100 complete control)
[15] = Postemergence, 250 g ai/ha, scale 0 to 100 (0 no effect, 100 complete control)
[16] = Preemergence, 31 g ai/ha, scale 0 to 100, 0 is no effect and 100 is complete control
[17] = Preemergence, 62 g ai/ha, scale 0 to 100 (0 no effect, 100 complete control)
[18] = Preemergence, 125 g ai/ha, scale 0 to 100
[19] = Postemergence, 125 g ai/ha, visual rating on 0 to 100 scale (0 no effect, 100 complete control), approx. 10 days
[20] = Postemergence, 500 g ai/ha, 0 to 100 scale (0 no effect, 100 complete control)
[21] = Preemergence, 125 g ai/ha, 0 to 100 scale where 0 is no effect and 100 is complete control
[22] = Preemergence, 500 g ai/ha, visual rating on 0 to 100 scale (0 no effect, 100 complete control)
[23] = 125 g ai/ha, visual rating on 0 to 100 scale (0 no effect, 100 complete control), approx. 10 days
[24] = 500 g ai/ha, 0 to 100 scale (0 no effect, 100 complete control)

For `O=C1NCC(c2cccc(C(F)(F)F)c2)C1C(=O)Nc1ccc(F)c(F)c1F` (stereo not drawn) [Compound 315], the “Plant response rating, Nutsedge, Yellow” value [1, 12] was 0, the “Plant response rating, Nutsedge, Yellow” value [1, 13] was 0 and the “Plant response rating, Nutsedge, Yellow” value [1, 14] was 0. For the same molecule, the “Plant response rating, Nutsedge, Yellow” value [1, 15] was 0, the “Nutsedge, Yellow plant response rating” value [1, 16] was 0 and the “Nutsedge, Yellow plant response rating” value [1, 17] was 0. For the same molecule, the “Plant response rating, Nutsedge, Yellow” value [1, 18] was 20, the “Plant response rating (scale of 0 to 100), Nutsedge, Yellow” value ([1]; Preemergence, 250 g ai/ha) was 20 and the “Plant response rating, Johnsongrass” value [2, 12] was 0. For the same molecule, the “Plant response rating, Johnsongrass” value [2, 13] was 0, the “Plant response rating, Johnsongrass” value [2, 14] was 0 and the “Plant response rating, Johnsongrass” value [2, 15] was 35. For the same molecule, the “Johnsongrass plant response rating” value [2, 16] was 75, the “Johnsongrass plant response rating” value [2, 17] was 85 and the “Plant response rating, Johnsongrass” value [2, 18] was 85. The “Plant response rating (scale of 0 to 100), Johnsongrass” value ([2]; Preemergence, 250 g ai/ha) was 90, the “Plant response rating, Velvetleaf” value [3, 12] was 10 and the “Plant response rating, Velvetleaf” value [3, 13] was 25. For the same molecule, the “Plant response rating, Velvetleaf” value [3, 14] was 30, the “Plant response rating, Velvetleaf” value [3, 15] was 55 and the “Velvetleaf plant response rating” value [3, 17] was 30. For the same molecule, the “Plant response rating, Velvetleaf” value [3, 18] was 40, the “Plant response rating (scale of 0 to 100), Velvetleaf” value ([3]; Preemergence, 250 g ai/ha) was 50 and the “Plant response rating, Rice” value [4] was 15. The “Plant response rating, Blackgrass” value [5, 12] was 0, the “Plant response rating, Blackgrass” value [5, 13] was 0 and the “Plant response rating, Blackgrass” value [5, 14] was 30. For the same molecule, the “Plant response rating, Blackgrass” value [5, 15] was 25, the “Blackgrass plant response rating” value [5, 16] was 60 and the “Blackgrass plant response rating” value [5, 17] was 60. The “Plant response rating, Blackgrass” value [5, 18] was 65, the “Plant response rating (scale of 0 to 100), Blackgrass” value ([5]; Preemergence, 250 g ai/ha) was 85 and the “Plant response rating, Pigweed” value [6, 19] was 30. The “Plant response rating, Pigweed” value [6, 20] was 50, the “Plant response rating, Pigweed” value [6, 21] was 30 and the “Pigweed plant response rating” value [6, 22] was 30. The “Plant response rating, Oilseed Rape” value [7, 12] was 0, the “Plant response rating, Oilseed Rape” value [7, 13] was 0 and the “Plant response rating, Oilseed Rape” value [7, 14] was 0. For the same molecule, the “Plant response rating, Oilseed Rape” value [7, 15] was 10, the “Oilseed Rape plant response rating” value [7, 16] was 5 and the “Oilseed Rape plant response rating” value [7, 17] was 30. For the same molecule, the “Plant response rating, Oilseed Rape” value [7, 18] was 85, the “Plant response rating (scale of 0 to 100), Oilseed Rape” value ([7]; Preemergence, 250 g ai/ha) was 80 and the “Plant response rating, Foxtail, Giant” value [8, 12] was 0. The “Plant response rating, Foxtail, Giant” value [8, 13] was 40, the “Plant response rating, Foxtail, Giant” value [8, 14] was 85 and the “Plant response rating, Foxtail, Giant” value [8, 15] was 85. The “Foxtail, Giant plant response rating” value [8, 16] was 90, the “Foxtail, Giant plant response rating” value [8, 17] was 90 and the “Plant response rating, Foxtail, Giant” value [8, 18] was 95. The “Plant response rating (scale of 0 to 100), Foxtail, Giant” value ([8]; Preemergence, 250 g ai/ha) was 98, the “Plant response rating, Barnyardgrass” value [9, 19] was 90 and the “Plant response rating, Barnyardgrass” value [9, 20] was 90. The “Plant response rating, Barnyardgrass” value [9, 21] was 90, the “Barnyardgrass plant response rating” value [9, 22] was 90 and the “Plant response rating, Foxtail, Giant” value [10, 19] was 90. The “Plant response rating, Foxtail, Giant” value [10, 20] was 90, the “Plant response rating, Foxtail, Giant” value [10, 21] was 90 and the “Foxtail, Giant plant response rating” value [10, 22] was 90. For the same molecule, the “Plant response rating, Corn” value [11, 23] was 70 and the “Plant response rating, Corn” value [11, 24] was 80.
In the case of `O=C1NCC(c2cccc(C(F)(F)F)c2)C1C(=O)Nc1cccc(Cl)c1F` (stereo not drawn) [Compound 316], the “Plant response rating, Nutsedge, Yellow” value [1, 12] was 0, the “Plant response rating, Nutsedge, Yellow” value [1, 13] was 0 and the “Plant response rating, Nutsedge, Yellow” value [1, 14] was 0. For the same molecule, the “Plant response rating, Nutsedge, Yellow” value [1, 15] was 0, the “Nutsedge, Yellow plant response rating” value [1, 16] was 0 and the “Nutsedge, Yellow plant response rating” value [1, 17] was 0. The “Plant response rating, Nutsedge, Yellow” value [1, 18] was 0, the “Plant response rating (scale of 0 to 100), Nutsedge, Yellow” value ([1]; Preemergence, 250 g ai/ha) was 70 and the “Plant response rating, Johnsongrass” value [2, 12] was 0. For the same molecule, the “Plant response rating, Johnsongrass” value [2, 13] was 0, the “Plant response rating, Johnsongrass” value [2, 14] was 0 and the “Plant response rating, Johnsongrass” value [2, 15] was 0. For the same molecule, the “Johnsongrass plant response rating” value [2, 16] was 50, the “Johnsongrass plant response rating” value [2, 17] was 75 and the “Plant response rating, Johnsongrass” value [2, 18] was 75. The “Plant response rating (scale of 0 to 100), Johnsongrass” value ([2]; Preemergence, 250 g ai/ha) was 85, the “Plant response rating, Velvetleaf” value [3, 12] was 0 and the “Plant response rating, Velvetleaf” value [3, 13] was 0. The “Plant response rating, Velvetleaf” value [3, 14] was 45, the “Plant response rating, Velvetleaf” value [3, 15] was 35 and the “Velvetleaf plant response rating” value [3, 17] was 10. The “Plant response rating, Velvetleaf” value [3, 18] was 10, the “Plant response rating, Rice” value [4] was 0 and the “Plant response rating, Blackgrass” value [5, 12] was 0. The “Plant response rating, Blackgrass” value [5, 13] was 0, the “Plant response rating, Blackgrass” value [5, 14] was 0 and the “Plant response rating, Blackgrass” value [5, 15] was 0. For the same molecule, the “Blackgrass plant response rating” value [5, 16] was 0, the “Blackgrass plant response rating” value [5, 17] was 0 and the “Plant response rating, Blackgrass” value [5, 18] was 30. The “Plant response rating (scale of 0 to 100), Blackgrass” value ([5]; Preemergence, 250 g ai/ha) was 60, the “Plant response rating, Pigweed” value [6, 19] was 0 and the “Plant response rating, Pigweed” value [6, 20] was 20. For the same molecule, the “Plant response rating, Pigweed” value [6, 21] was 20, the “Pigweed plant response rating” value [6, 22] was 20 and the “Plant response rating, Oilseed Rape” value [7, 12] was 0. For the same molecule, the “Plant response rating, Oilseed Rape” value [7, 13] was 0, the “Plant response rating, Oilseed Rape” value [7, 14] was 0 and the “Plant response rating, Oilseed Rape” value [7, 15] was 0. The “Oilseed Rape plant response rating” value [7, 16] was 0, the “Oilseed Rape plant response rating” value [7, 17] was 0 and the “Plant response rating, Oilseed Rape” value [7, 18] was 20. For the same molecule, the “Plant response rating (scale of 0 to 100), Oilseed Rape” value ([7]; Preemergence, 250 g ai/ha) was 60, the “Plant response rating, Foxtail, Giant” value [8, 12] was 5 and the “Plant response rating, Foxtail, Giant” value [8, 13] was 5. The “Plant response rating, Foxtail, Giant” value [8, 14] was 85, the “Plant response rating, Foxtail, Giant” value [8, 15] was 85 and the “Foxtail, Giant plant response rating” value [8, 16] was 85. The “Foxtail, Giant plant response rating” value [8, 17] was 90, the “Plant response rating, Foxtail, Giant” value [8, 18] was 90 and the “Plant response rating (scale of 0 to 100), Foxtail, Giant” value ([8]; Preemergence, 250 g ai/ha) was 95. The “Plant response rating, Barnyardgrass” value [9, 19] was 80, the “Plant response rating, Barnyardgrass” value [9, 20] was 90 and the “Plant response rating, Barnyardgrass” value [9, 21] was 80. The “Barnyardgrass plant response rating” value [9, 22] was 90, the “Plant response rating, Foxtail, Giant” value [10, 19] was 90 and the “Plant response rating, Foxtail, Giant” value [10, 20] was 90. The “Plant response rating, Foxtail, Giant” value [10, 21] was 90, the “Foxtail, Giant plant response rating” value [10, 22] was 90 and the “Plant response rating, Corn” value [11, 23] was 60. The “Plant response rating, Corn” value [11, 24] was 80.
